Laboratory results reported in patent US10669268B2, “Bicyclic derivatives” (Hoffmann-La Roche Inc., priority 2012, dated 2020).

Target: ATX (human His-tagged) (Homo sapiens (Human), UniProt Q13822)
Experiment: Human ATX enzyme inhibition assay (fluorescence quenching, MR121 substrate)
Assay type: biochemical
Conditions: 30 nM ATX, 1 μM MR121 substrate, 30° C., pH 8.0
In short: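 Fluorescence-quenching assay using MR121 substrate at 1 μM final, incubated 15 min at 30 °C. Buffer was 50 mM Tris-HCl pH 8.0 with 140 mM NaCl, 5 mM KCl, 1 mM CaCl2, 1 mM MgCl2 and 0.01% Triton X-100.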

Row | IC50 | SMILES
1 | 0.058 µM | CS(=O)(=O)c1cc(Cl)cc(COC(=O)N2CC[C@@H]3CN(C(=O)c4ccc5[nH]nnc5c4)C[C@H]3C2)c1 (relative stereo) [Example 1.23, trans-2-(1H-benzotriazole-5-carbonyl)-octahydro-pyrrolo[3,4-c]pyridine-5-carboxylic acid 3-chloro-5-methanesulfonyl-benzyl ester]
2 | 1.03 µM | O=C(OCc1cc(Cl)cc(Cl)c1)N1C[C@@H]2CN(C(=O)c3ccc4[nH]ncc4c3)C[C@@H]2C1 [Example 1.07, (3aR,6aS)-3,5-dichlorobenzyl 5-(1H-indazole-5-carbonyl)hexahydropyrrolo[3,4-c]pyrrole-2(1H)-carboxylate]
3 | 1.48 µM | O=C(OC1(c2cccc(Cl)c2)CC1)N1C[C@@H]2CN(C(=O)c3ccc4[nH]nnc4c3)C[C@@H]2C1 [Example 4.12, (3aS,6aR)-5-(1H-benzotriazole-5-carbonyl)-hexahydro-pyrrolo[3,4-c]pyrrole-2-carboxylic acid 1-(3-chloro-phenyl)-cyclopropyl ester]
4 | 0.127 µM | O=C(OCc1cc(Cl)cc(Cl)c1)N1C[C@@H]2CN(C(=O)c3cc4c(cn3)[nH]c3ccccc34)C[C@@H]2C1 [Example 1.04, (3aR,6aS)-3,5-dichlorobenzyl 5-(9H-pyrido[3,4-b]indole-3-carbonyl)hexahydropyrrolo[3,4-c]pyrrole-2(1H)-carboxylate]
5 | 0.032 µM | N#Cc1ccc(/C=C/C(=O)N2C[C@@H]3CN(C(=O)c4ccc5[nH]nnc5c4)C[C@H]3C2)cc1 [Example 15.23]
6 | 0.255 µM | O=C(OCc1cc(Cl)cc(Cl)c1)N1C[C@@H]2CN(C(=O)c3ccc4[nH]c5ccccc5c4c3)C[C@@H]2C1 [Example 1.06, (3aR,6aS)-3,5-dichlorobenzyl 5-(9H-carbazole-3-carbonyl)hexahydropyrrolo[3,4-c]pyrrole-2(1H)-carboxylate]
7 | 0.021 µM | O=C(CCc1ccc(-c2ccccc2)cn1)N1C[C@@H]2CN(C(=O)c3ccc4[nH]nnc4c3)C[C@H]2C1 [Example 17.10, 1-[(3aR,6aR)-5-(1H-benzotriazole-5-carbonyl)-hexahydro-pyrrolo[3,4-c]pyrrol-2-yl]-3-(5-phenyl-pyridin-2-yl)-propan-1-one]
8 | 0.28 µM | O=C1N[C@@H]2CCN(C(=O)N3C[C@H]4CN(C(=O)/C=C/c5ccc(OC(F)(F)F)cc5)C[C@@H]4C3)C[C@H]2O1 [Example 15.54]
9 | 0.008 µM | O=C(/C=C/c1ccc(-c2ccccc2)nc1)N1C[C@@H]2CN(C(=O)c3ccc4[nH]nnc4c3)C[C@H]2C1 [Example 15.77]
10 | 0.494 µM | O=C(CCc1ccccc1)N1C[C@@H]2CN(C(=O)c3ccc4[nH]nnc4c3)C[C@H]2C1 [Example 15.57]
11 | 0.713 µM | O=C(/C=C/c1ccc(OC(F)(F)F)cc1)N1CC[C@@H]2CN(C(=O)NCc3nnc[nH]3)C[C@@H]2CC1 [Example 9.04]
12 | 0.036 µM | O=C(OCc1cc(Cl)cc(Cl)c1)N1CC[C@@H]2CN(C(=O)c3ccc4[nH]nnc4c3)C[C@@H]2C1 [Example 10A, (3aR,7aS)-2-(1H-Benzotriazole-5-carbonyl)-octahydro-pyrrolo[3,4-c]pyridine-5-carboxylic acid 3,5-dichloro-benzyl ester]
13 | 0.247 µM | O=C(/C=C/c1ccc(OC(F)(F)F)cc1)N1CC[C@@H]2CN(C(=O)N3CCc4[nH]cnc4C3)C[C@@H]2CC1 [Example 9.06]
14 | 0.799 µM | O=C(OCCC12CC3CC(CC(C3)C1)C2)N1C[C@@H]2CN(C(=O)c3ccc4[nH]nnc4c3)C[C@@H]2C1 [Example 4.17, (3aS,6aR)-5-(1H-benzotriazole-5-carbonyl)-hexahydro-pyrrolo[3,4-c]pyrrole-2-carboxylic acid 2-adamantan-1-yl-ethyl ester]
15 | 0.001 µM | CC(C)(C)c1cc(Br)ccc1OCC(=O)N1C[C@@H]2CN(C(=O)[C@@H]3CCc4[nH]nnc4C3)C[C@H]2C1 [Example 19.29, 1-[(3aS,6aS)-5-[(5R)-4,5,6,7-tetrahydro-1H-benzotriazole-5-carbonyl]-1,3,3a,4,6,6a-hexahydropyrrolo[3,4-c]pyrrol-2-yl]-2-(4-bromo-2-tert-butylphenoxy)ethanone]
16 | 0.035 µM | O=C(CCc1cc(Cl)cc(Cl)c1)N1C[C@@H]2CN(C(=O)c3ccc4[nH]nnc4c3)C[C@@H]2C1 [Example 1.01, 1-((3aR,6aS)-5-(1H-benzo[d][1,2,3]triazole-5-carbonyl)hexahydropyrrolo[3,4-c]pyrrol-2(1H)-yl)-3-(3,5-dichlorophenyl)propan-1-one]
17 | 0.036 µM | O=C(OCc1cc(Cl)cc(Cl)c1)N1C[C@H]2C[C@H](Oc3ccc4[nH]c(=O)oc4c3)C[C@H]2C1 [Example 3, (3aR,5s,6aS)-3,5-Dichlorobenzyl 5-(2-oxo-2,3-dihydrobenzo[d]oxazol-6-yloxy)hexahydrocyclopenta[c]pyrrole-2(1H)-carboxylate]

Row | IC50 | SMILES
18 | 0.006 µM | N#Cc1cc(Cl)cc(/C=C/C(=O)N2C[C@@H]3CN(C(=O)c4ccc5[nH]nnc5c4)C[C@H]3C2)c1 [Example 15.50]
19 | 0.002 µM | CC(C)c1cc(C#N)ccc1CCC(=O)N1C[C@@H]2CN(C(=O)c3ccc4[nH]nnc4c3)C[C@H]2C1 [Example 19.22, 4-[3-[(3aR,6aR)-5-(1H-benzotriazole-5-carbonyl)-1,3,3a,4,6,6a-hexahydropyrrolo[3,4-c]pyrrol-2-yl]-3-oxopropyl]-3-propan-2-ylbenzonitrile]
20 | 0.004 µM | O=C(CCc1ccc(OC(F)(F)F)c(F)c1)N1CC[C@@H]2CN(C(=O)c3ccc4[nH]nnc4c3)C[C@@H]2CC1 [Example 17, 1-((3aR,8aS)-2-(1H-Benzo[d][1,2,3]triazole-5-carbonyl)octahydropyrrolo[3,4-d]azepin-6(7H)-yl)-3-(3-fluoro-4-(trifluoromethoxy)phenyl)propan-1-one]
21 | 0.008 µM | O=C(/C=C/c1cc(Cl)cc(C(F)(F)F)c1)N1CC[C@@H]2CN(C(=O)c3ccc4[nH]nnc4c3)C[C@@H]2CC1 [Example 1.27, (E)-1-((3aR,8aS)-2-(1H-benzo[d][1,2,3]triazole-5-carbonyl)octahydropyrrolo[3,4-d]azepin-6(7H)-yl)-3-(3-chloro-5-(trifluoromethyl)phenyl)prop-2-en-1-one]
22 | 0.007 µM | NS(=O)(=O)C1CCN(C(=O)N2C[C@H]3CN(C(=O)OCc4ccc(OC(F)(F)F)cc4)C[C@@H]3C2)CC1 [Example 9.10]
23 | 0.013 µM | O=C(/C=C/c1ccc(F)cc1C(F)(F)F)N1CC[C@@H]2CN(C(=O)c3ccc4[nH]nnc4c3)C[C@@H]2CC1 [Example 15.66, (E)-1-((3aR,8aS)-2-(1H-benzo[d][1,2,3]triazole-5-carbonyl)octahydro-pyrrolo[3,4-d]azepin-6(7H)-yl)-3-(4-fluoro-2-(trifluoromethyl)phenyl)-prop-2-en-1-one]
24 | 0.005 µM | O=C(/C=C/c1ccc(OC(F)(F)F)cc1F)N1CC[C@@H]2CN(C(=O)c3ccc4[nH]nnc4c3)C[C@@H]2CC1 [Example 15.39]
25 | 0.007 µM | Cc1ccc(C(C)C)c(OCC(=O)N2C[C@@H]3CN(C(=O)c4ccc5[nH]nnc5c4)C[C@H]3C2)c1 [Example 19, 1-[(3aS,6aS)-5-(1H-benzotriazole-5-carbonyl)-hexahydro-pyrrolo[3,4-c]pyrrol-2-yl]-2-(2-isopropyl-5-methyl-phenoxy)-ethanone]
26 | 0.186 µM | O=C(/C=C/c1ccc(OC(F)(F)F)cc1)N1CC[C@@H]2CN(C(=O)N3CCc4[nH]ncc4C3)C[C@@H]2CC1 [Example 8.02]
27 | 0.81 µM | CC(C)(Cc1cccc(Cl)c1)C(=O)N1CC[C@@H]2CN(C(=O)c3ccc4[nH]nnc4c3)C[C@@H]2CC1 [Example 1.14, 1-((3aR,8aS)-2-(1H-benzo[d][1,2,3]triazole-5-carbonyl)octahydropyrrolo[3,4-d]azepin-6(7H)-yl)-3-(3-chlorophenyl)-2,2-dimethylpropan-1-one]
28 | 0.058 µM | O=C(CCc1ccc(C(F)(F)F)cn1)N1C[C@@H]2CN(C(=O)c3ccc4[nH]nnc4c3)C[C@H]2C1 [Example 17.09, 1-[(3aR,6aR)-5-(1H-benzotriazole-5-carbonyl)-hexahydro-pyrrolo[3,4-c]pyrrol-2-yl]-3-(5-trifluoromethyl-pyridin-2-yl)-propan-1-one]
29 | 0.02 µM | COc1cc(C(=O)N2C[C@H]3CN(C(=O)c4ccc5[nH]nnc5c4)C[C@@H]3C2)cc2ccccc12 [Example 19.15, (1H-benzotriazol-5-yl)-[(3aR,6aR)-5-(4-methoxy-naphthalene-2-carbonyl)-hexahydro-pyrrolo[3,4-c]pyrrol-2-yl]-methanone]
30 | 0.013 µM | O=C(OCc1ccc(OC(F)(F)F)cc1)N1CC[C@@H]2CN(C(=O)c3ccc4[nH]nnc4c3)C[C@H]2C1 (relative stereo) [Example 1.24, trans-2-(1H-benzotriazole-5-carbonyl)-octahydro-pyrrolo[3,4-c]pyridine-5-carboxylic acid 4-trifluoromethoxy-benzyl ester]
31 | 0.005 µM | O=C(CCc1ccc(OC(F)(F)F)cc1)N1C[C@@H]2CN(C(=O)c3ccc4[nH]c(=O)oc4c3)C[C@H]2C1 [Example 2.03, 6-[(3aR,6aR)-2-[3-[4-(trifluoromethoxy)phenyl]propanoyl]-1,3,3a,4,6,6a-hexahydropyrrolo[3,4-c]pyrrole-5-carbonyl]-3H-1,3-benzoxazol-2-one]
32 | 0.036 µM | O=C(NCc1cnn[nH]1)[C@H]1C[C@@H]2CN(C(=O)OCc3cc(Cl)cc(Cl)c3)C[C@@H]2C1 [Example 4.33, (3aR,5s,6aS)-5-[(3H-[1,2,3]triazol-4-ylmethyl)-carbamoyl]-hexahydro-cyclopenta[c]pyrrole-2-carboxylic acid 3,5-dichloro-benzyl ester]
33 | 0.013 µM | O=C(/C=C/c1cc(Cl)cc(Cl)c1)N1C[C@H]2CCN(C(=O)c3ccc4[nH]nnc4c3)C[C@@H]2C1 [Example 15.76]
